Source: US8975276B2, “Inhibitors of PDE10” (Bristol-Myers Squibb Company, priority 2011, dated 2015)
Where a name gives a salt, the structure may show the parent alone. Read-outs that look alike come from different tables or passages of the source.

Molecular target: PDE10 (Homo sapiens (Human), UniProt Q9Y233)
Experiment: LE_PDE10A inhibition assay (scintillation proximity assay, cAMP hydrolysis)
Format: biochemical
Conditions: SPA, 3H-cAMP substrate at Km 25 nM
Protocol: LE_PDE10A Inhibition Assay:
The PDE10 inhibition assay in 384-well plates was conducted to identify substances for the inhibition of cyclic nucleotide hydrolysis by the PDE10 enzyme. […] PDE10 activity was measured using Scintillation Proximity Assay (SPA)-based methods. PDE10 catalyses the hydrolysis of the intracellular messenger adenosine […] (cAMP) to the non-cyclic adenosine 5′-monophosphate (AMP). The SPA assay was based upon the selective interaction of the tritiated product with yttrium oxide LEADseeker beads.
The assay buffer contained 25 mM HEPES pH 7.4, 2.5 mM Magnesium Chloride and 0.1% BSA. […] The reaction was terminated by adding 6 μL of 5 mg/mL of yttrium oxide LEADseeker beads. The beads were allowed to settle for 3 hours before plates were read in the LEEDSeaker for 6 minutes. The measured signal could be converted to activity relative to an […] control (100%). IC50 values were calculated by using in-house data software and IC50 values were generated by nonlinear regression analysis. (Bristol-Myers Squibb Company, Wallingford, Conn.).

Sequence of PDE10 (Q9Y233 whole entry): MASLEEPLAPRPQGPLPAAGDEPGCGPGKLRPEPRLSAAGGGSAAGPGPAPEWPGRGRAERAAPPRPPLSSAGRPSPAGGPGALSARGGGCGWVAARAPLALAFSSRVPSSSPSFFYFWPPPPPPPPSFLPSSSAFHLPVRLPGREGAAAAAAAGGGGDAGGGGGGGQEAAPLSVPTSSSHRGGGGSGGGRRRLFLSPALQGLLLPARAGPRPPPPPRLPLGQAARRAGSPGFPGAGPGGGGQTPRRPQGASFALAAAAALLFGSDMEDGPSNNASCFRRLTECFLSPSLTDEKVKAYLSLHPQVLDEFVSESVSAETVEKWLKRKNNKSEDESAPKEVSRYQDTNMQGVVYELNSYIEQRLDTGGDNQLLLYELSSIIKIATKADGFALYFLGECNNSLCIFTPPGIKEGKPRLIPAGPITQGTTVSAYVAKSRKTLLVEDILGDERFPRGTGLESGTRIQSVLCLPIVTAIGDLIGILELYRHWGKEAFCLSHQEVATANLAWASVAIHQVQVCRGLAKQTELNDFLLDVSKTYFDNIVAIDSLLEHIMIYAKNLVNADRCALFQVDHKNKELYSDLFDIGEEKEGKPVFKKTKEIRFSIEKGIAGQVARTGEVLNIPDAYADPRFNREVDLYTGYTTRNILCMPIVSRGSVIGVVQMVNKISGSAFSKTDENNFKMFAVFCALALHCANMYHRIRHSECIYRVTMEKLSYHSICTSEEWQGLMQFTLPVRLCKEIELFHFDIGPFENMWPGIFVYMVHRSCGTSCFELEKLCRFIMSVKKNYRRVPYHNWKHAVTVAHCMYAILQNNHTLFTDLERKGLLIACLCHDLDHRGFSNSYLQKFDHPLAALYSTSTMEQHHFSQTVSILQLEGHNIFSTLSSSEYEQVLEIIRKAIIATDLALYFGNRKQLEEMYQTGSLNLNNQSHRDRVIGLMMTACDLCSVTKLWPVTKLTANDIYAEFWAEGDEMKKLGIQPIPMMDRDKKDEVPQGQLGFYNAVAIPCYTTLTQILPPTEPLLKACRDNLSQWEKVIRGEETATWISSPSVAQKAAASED

| IC50 (read-out: PDE10 IC50 (Range)) | IC50 (read-out: PDE10 IC50) | SMILES |
| --- | --- | --- |
| 1 to 100 nM | – | Cc1ncc(C)n2nc(-c3ccn4cc(-c5cnccn5)nc4c3)nc12 [Example 22, 5,8-dimethyl-2-(2-(pyrazin-2-yl)imidazo[1,2-a]pyridin-7-yl)-[1,2,4]triazolo[1,5-a]pyrazine] |
| 1 to 100 nM | – | Cc1nccn2nc(-c3ccn4cc(-c5ccccc5)nc4c3)nc12 [Example 19, 8-methyl-2-(2-phenylimidazo[1,2-a]pyridin-7-yl)-1,2,41-triazolo[1,5-a]pyrazine, 2 HCl] |
| – | 0.1 nM | Cc1ncc(C)n2nc(-c3ccn4cc(-c5ccccc5)nc4c3)nc12 [Example 1, 5,8-dimethyl-2-(2-phenylimidazo[1,2-a]pyridin-7-yl)-[1,2,4]triazolo[1,5-a]pyrazine] |
| 1 to 100 nM | 2.4 nM | Cc1nccn2nc(-c3ccn4c(C)c(-c5ccccc5)nc4c3)nc12 [Example 29, 8-methyl-2-(3-methyl-2-phenylimidazo[1,2-a]pyridin-7-yl)-[1,2,4]triazolo[1,5-a]pyrazine] |
| 1 to 100 nM | 3.5 nM | Cc1ncc(C)n2nc(-c3cc4nc(-c5ccccc5)cn4cc3N3CCCC3)nc12 [Example 17, 5,8-dimethyl-2-(2-phenyl-6-(pyrrolidin-1-yl)imidazo[1,2-a]pyridin-7-yl)-[1,2,4]triazolo[1,5-a]pyrazine] |
| 1 to 100 nM | – | Cc1ncc(C)n2nc(-c3ccn4cc(-c5ccc(Cl)cc5)nc4c3)nc12 [Example 6, 2-(2-(4-chlorophenyl)imidazo[1,2-a]pyridin-7-yl)-5,8-dimethyl-[1,2,4]triazolo[1,5-a]pyrazine] |
| – | 0.33 nM | Cc1ncc(C)n2nc(-c3ccn4cc(-c5cccc(C6CC6)c5)nc4c3)nc12 [Example 26, 2-(2-(3-cyclopropylphenyl)imidazo[1,2-a]pyridin-7-yl)-5,8-dimethyl-1,2,41-triazolo[1,5-a]pyrazine] |
| – | 0.16 nM | Cc1ncc(C)n2nc(-c3ccn4cc(-c5cccc(N6CC[C@H](F)C6)c5)nc4c3)nc12 [Example 28, (S)-2-(2-(3-(3-fluoropyrrolidin-1-yl)phenyl)imidazo[1,2-a]pyridin-7-yl)-5,8-dimethyl-[1,2,4]triazolo[1,5-a]pyrazine] |
| – | 0.16 nM | Cc1ncc(C)n2nc(-c3ccn4cc(-c5ccccn5)nc4c3)nc12 [Example 14, 5,8-dimethyl-2-(2-(pyridin-2-yl)imidazo[1,2-a]pyridin-7-yl)-[1,2,4]triazolo[1,5-a]pyrazine] |
| 1 to 100 nM | – | Cc1ncc(C)n2nc(-c3ccn4cc(-c5ccc(C#N)cc5)nc4c3)nc12 [Example 16, 4-(7-(5,8-dimethyl-[1,2,4]triazolo[1,5-a]pyrazin-2-yl)-imidazo[1,2-a]pyridin-2-yl)benzonitrile] |
| 1 to 100 nM | – | Cc1nccn2nc(-c3ccn4cc(-c5cccc(Br)c5)nc4c3)nc12 [Example 23, 2-(2-(3-bromophenyl)imidazo[1,2-a]pyridin-7-yl)-8-methyl-[1,2,4]triazolo[1,5-a]pyrazine] |
| 1 to 100 nM | – | Cc1nccn2nc(-c3ccn4cc(-c5ccccn5)nc4c3)nc12 [Example 20, 8-methyl-2-(2-(pyridin-2-yl)imidazo[1,2-a]pyridin-7-yl)-[1,2,4]triazolo[1,5-a]pyrazine, 2 HCl] |
| 1 to 100 nM | – | Cc1nccn2nc(-c3ccn4cc(-c5cccc(C6CC6)c5)nc4c3)nc12 [Example 24, 2-(2-(3-cyclopropylphenyl)imidazo[1,2-a]pyridin-7-yl)-8-methyl-[1,2,4]triazolo[1,5-a]pyrazine] |
| 1 to 100 nM | 26 nM | Cc1ncc(C)n2nc(-c3ccn4cc(C5CC5)nc4c3)nc12 [Example 21, 2-(2-cyclopropylimidazo[1,2-a]pyridin-7-yl)-5,8-dimethyl-[1,2,4]triazolo[1,5-a]pyrazine] |
| 1 to 100 nM | 11 nM | Cc1ccc(-c2cn3ccc(-c4nc5c(C)ncc(C)n5n4)cc3n2)c(C)c1 [Example 7, 2-(2-(2,4-dimethylphenyl)imidazo[1,2-a]pyridin-7-yl)-5,8-dimethyl-[1,2,4]triazolo[1,5-a]pyrazine] |
